Source: the supplement of paper PMC12669032

Tests used:
Test in all cases: growth AUC relative to DMSO control (fraction); higher = more growth (less inhibition)
Conditions in all cases: 24 h
Clostridium difficile = tested on: Clostridium difficile
Experimental: (§1)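 Validation screen: 11 independently purchased pesticides tested on 8 gut bacterial strains at 2.5–320 µM in mGAM, anaerobic, 37 °C, 24 h. Growth AUC normalised to DMSO controls, mean of 3 independent experiments.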

Lactobacillus gasseri = tested on: Lactobacillus gasseri
Experimental: as §1

Streptococcus salivarius = tested on: Streptococcus salivarius
Experimental: as §1

Escherichia coli IAI1 = tested on: Escherichia coli IAI1
Experimental: as §1

Roseburia intestinalis = tested on: Roseburia intestinalis
Experimental: as §1

Eubacterium rectale = tested on: Eubacterium rectale
Experimental: as §1

Bacteroides uniformis = tested on: Bacteroides uniformis
Experimental: as §1

[1] = tested on: Parabacteroides distasonis
Experimental: as §1

N#Cc1c(Cl)c(Cl)c(Cl)c(C#N)c1Cl [CHLOROTHALONIL]
growth AUC
Conditions	Bacteroides uniformis	Clostridium difficile	Escherichia coli IAI1	Eubacterium rectale	Lactobacillus gasseri	Roseburia intestinalis	Streptococcus salivarius	[1]
2.5 µM	1.04	1.03	1.02	1.07	1.02	0.978	1.08	1.13
5 µM	1.01	1.01	0.986	0.894	1.03	1.01	0.963	1.04
10 µM	0.981	0.963	1.01	0.836	1	0.91	1	0.921
20 µM	0.889	0.993	0.974	0.593	0.925	0.713	0.907	0.961

CC[C@H](C)[C@H]1O[C@]2(C=C[C@@H]1C)C[C@@H]1C[C@@H](C/C=C(\C)[C@@H](O[C@H]3C[C@H](OC)[C@@H](O[C@H]4C[C@H](OC)[C@@H](NC)[C@H](C)O4)[C@H](C)O3)[C@@H](C)/C=C/C=C3\CO[C@@H]4[C@H](O)C(C)=C[C@@H](C(=O)O1)[C@]34O)O2.O=C(O)c1ccccc1 [EMAMECTIN BENZOATE]
growth AUC
Conditions	Bacteroides uniformis	Clostridium difficile	Escherichia coli IAI1	Eubacterium rectale	Lactobacillus gasseri	Roseburia intestinalis	Streptococcus salivarius	[1]
2.5 µM	1.03	1.01	1.06	1.03	1.01	0.859	1.08	1.09
5 µM	1.04	0.987	1.02	1.04	1.01	0.396	1	0.898
10 µM	0.992	0.916	1	0.693	0.949	0.0369	1.02	0.487
20 µM	1.03	0.967	0.979	0.0185	0.822	0.0348	0.938	0.0163
40 µM	0.839	0.654	1.05	0.0159	0.848	0.0127	1.14	0.00619
80 µM	0.669	0.0139	1.04	0.0289	1.02	0.00913	1.16	0.0234
160 µM	0.732	0.0469	1.06	0.126	1.07	0.0441	1.27	0.0419

CCCN(CCOc1c(Cl)cc(Cl)cc1Cl)C(=O)n1ccnc1 [PROCHLORAZ]
growth AUC
Conditions	Bacteroides uniformis	Clostridium difficile	Escherichia coli IAI1	Eubacterium rectale	Lactobacillus gasseri	Roseburia intestinalis	Streptococcus salivarius	[1]
2.5 µM	1	0.989	1	0.748	1.01	0.993	1.01	0.957
5 µM	0.994	0.977	0.987	0.524	1	1.02	0.995	0.858
10 µM	0.938	0.956	0.966	0.397	0.944	0.949	0.973	0.68
20 µM	0.92	1.01	0.956	0.125	0.931	0.718	0.945	0.608
40 µM	0.886	0.875	0.988	0.0225	0.957	0.594	0.984	0.363
80 µM	0.812	0.913	0.989	0.0308	0.903	0.0292	0.962	0.0195
160 µM	0.767	0.391	0.983	0.0176	0.836	0.0197	0.935	0.0246
